The experiment deals with human α7 nAchR (Homo sapiens (Human), UniProt P36544). The experiment can be described thus: Human α7 nicotinic acetylcholine receptor [Ca2+]i assay (PAM, Ca2+ fluorometry). The experiment is classed as cell-based. The following applies: Flp-In 293 cells expressing human α7 nAchR and human RIC-3; in presence of saturating agonist (mostly PNU-282987, 1 μM). The protocol: Biological Activity Human α7 Nicotinic Acetylcholine Receptor [Ca^2+]i Assay
Cells: Flp-In 293 cells stably expressing human α7 nAchR and human RIC-3 (α7 cells, generated in house.)
Materials: 96-well plates coated with PDL (Falcon), culture medium, assay buffer, DMSO, FLIPR Calcium 5 kit (Molecular Devices), probenecid, agonist and PAM test compounds.
Brief Description of the Method (Ca^2+ Fluorometry)
α7 cells stably expressing human α7 nAchR were cultured in the medium detailed above, and were split twice a week. For the fluorometric measurements of cytosolic Ca^2+ ion concentration ([Ca^2+]i) cells were seeded in 96-well microplates at a density of 60000 cells/well and maintained overnight in a tissue culture incubator at 37° C. under an atmosphere of 95% air/5% CO2. The plating medium was identical with the culture medium. 50 μl of the growth medium was aspirated with a cell washer (BioTek Elx405UCVWS). Then 50 μl/well Calcium 5 kit diluted 2-fold in assay buffer was added manually using an 8-channel pipette. After an incubation period (20 minutes, 37° C.) 50 μl/well assay buffer containing vehicle (DMSO, 4% added) or reference α7 PAMs (4×of the final concentration) were added manually and the cells were incubated for an additional 10 minutes at 37° C. Baseline and agonist-evoked [Ca2+]i-changes were monitored with FlexStation II (Molecular Devices, Sunnyvale, Calif.), a plate reader fluorometer with integrated 8-channel fluid addition capability. Fluorescence measurements were carried out at 37° C. The dye was excited at 485 nm, emission was sampled at 525 nm at 1.4-s intervals. Baseline was recorded for 20 seconds followed by agonist stimulation. 50 μl 4× concentrated agonist solution was added to the cells using the pipettor of FlexStation II and fluorescence was monitored for an additional 40 seconds. Final DMSO concentration was 1% for all treatments. To achieve this, a series of DMSO stock solutions were prepared from all test compounds. These stocks were stored under 0° C. and were further diluted in assay buffer to obtain the desired final concentration immediately before the measurement. Agonist and PAM concentration-response studies were conducted in the presence of saturating concentrations of PAMs (mostly PNU-120596, 5 μM) and agonists (mostly PNU-282987, 1 μM), respectively. Results were expressed as ΔF/F values using SoftMax Pro software (Molecular Devices), where F was the resting fluorescence preceding agonist application and ΔF was the increase in fluorescence at a given time (ΔF=maximum fluorescence intensity values after stimulation minus average fluorescence intensity values before stimulation). In all experiments, all treatments were measured in multiple wells in parallel, and the mean ΔF/F values were used for analysis.

The structures appear in SMILES notation.

Sequence of human α7 nAchR (P36544 23-502): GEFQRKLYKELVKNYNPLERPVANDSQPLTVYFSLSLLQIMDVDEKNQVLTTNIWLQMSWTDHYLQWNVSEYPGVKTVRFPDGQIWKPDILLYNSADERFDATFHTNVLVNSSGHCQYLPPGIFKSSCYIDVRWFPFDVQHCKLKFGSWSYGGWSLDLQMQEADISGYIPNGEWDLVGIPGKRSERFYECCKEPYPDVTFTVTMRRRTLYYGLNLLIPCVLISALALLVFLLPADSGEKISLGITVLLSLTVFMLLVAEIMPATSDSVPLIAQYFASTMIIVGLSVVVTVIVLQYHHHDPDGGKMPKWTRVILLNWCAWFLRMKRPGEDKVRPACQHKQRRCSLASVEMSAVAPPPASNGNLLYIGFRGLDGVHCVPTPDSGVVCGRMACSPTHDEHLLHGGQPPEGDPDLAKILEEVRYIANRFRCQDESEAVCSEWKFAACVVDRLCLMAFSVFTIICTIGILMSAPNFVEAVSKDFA

Take `COc1ccc(C2=NS(=O)(=O)N([C@@H]3CCOC3)C(C(=O)Nc3cccc(C(F)(F)F)n3)=C2)cc1OC` [Example 84]: the EC50 is 130 nM.
The same measure for `CCCn1ccc(NC(=O)C2=CC(c3ccc(OC)c(OC)c3)=NS(=O)(=O)N2C)n1` [Example 85, 5-(3,4-dimethoxyphenyl)-2-methyl-1,1-dioxo-N-(1-propyl-1H-pyrazol-3-yl)-2H-1λ^6,2,6-thiadiazine-3-carboxamide]: 2000 nM; for `CCCCn1cc(NC(=O)C2=CC(c3ccc(OC)c(OC)c3)=NS(=O)(=O)N2C)cn1` [Example 86, N-(1-butyl-1H-pyrazol-4-yl)-5-(3,4-dimethoxyphenyl)-2-methyl-1,1-dioxo-2H-1λ^6,2,6-thiadiazine-3-carboxamide]: 2900 nM.
On to `CCN1C(C(=O)Nc2cccc(C(F)(F)F)n2)=CC(c2ccc(OC)c(C(F)(F)F)c2)=NS1(=O)=O` [Example 87, 2-ethyl-5-[4-methoxy-3-(trifluoromethyl)phenyl]-1,1-dioxo-N-[6-(trifluoromethyl)pyridin-2-yl]-2H-1λ^6,2,6-thiadiazine-3-carboxamide], for which the EC50 came out at 10 nM.
The same measure for `CCN1C(C(=O)Nc2ccnc(C(F)(F)F)c2)=CC([C@H]2CC[C@H](C(F)(F)F)CC2)=NS1(=O)=O` [Example 88]: 1400 nM.
The same measure for `COc1ccc(C2=NS(=O)(=O)N(C(C)C)C(C(=O)Nc3cccc(C(F)(F)F)c3)=C2)cc1OC` [Example 89]: 290 nM.
The same measure for `COc1ccc(C2=NS(=O)(=O)N(C(C)C)C(C(=O)Nc3cccc(Nc4cccc(F)n4)n3)=C2)cc1OC` [Example 90]: 1200 nM; for `COc1ccc(C2=NS(=O)(=O)N(C(C)C)C(C(=O)Nc3cccc(Cl)c3)=C2)cc1OC` [Example 92]: 290 nM.
`CC(C)N1C(C(=O)Nc2cccc(C(F)(F)F)n2)=CC([C@H]2CC[C@H](C(F)(F)F)CC2)=NS1(=O)=O` [Example 93]: the EC50 was determined as 120 nM.
`CCCN1C(C(=O)Nc2cccc(C(F)(F)F)n2)=CC(c2ccc(OC)c(OC)c2)=NS1(=O)=O` [Example 95]: the EC50 stood at 45 nM.
For `CCCN1C(C(=O)Nc2cccc(C(F)(F)F)c2)=CC(c2cc(OC)c(OC)cc2F)=NS1(=O)=O` [Example 96], the concentration for a half-maximal effect (EC50) came to 330 nM.
The same measure for `CCCN1C(C(=O)Nc2cccc(C(F)(F)F)n2)=CC(c2ccc(OC)c(C(F)(F)F)c2)=NS1(=O)=O` [Example 97]: 30 nM; for `CCCN1C(C(=O)Nc2cccc(C(F)(F)F)c2)=CC(c2ccc(OC)c(C)c2)=NS1(=O)=O` [Example 98]: 100 nM.
The same measure for `CCCN1C(C(=O)Nc2cccc(C(F)(F)F)n2)=CC(c2ccc(OC)c(C)c2)=NS1(=O)=O` [Example 99]: 40 nM; for `CCCN1C(C(=O)Nc2cccc(C(F)(F)F)c2)=CC(c2ccc(OC)c(Cl)c2)=NS1(=O)=O` [Example 100]: 150 nM; for `CCCN1C(C(=O)Nc2cccc(C(F)(F)F)n2)=CC(c2ccc(OC)c(Cl)c2)=NS1(=O)=O` [Example 101]: 65 nM.
The same measure for `COc1ccc(C2=NS(=O)(=O)N(CC3CC3)C(C(=O)Nc3cccc(C(F)(F)F)c3)=C2)cc1OC` [Example 102]: 320 nM; for `COc1ccc(C2=NS(=O)(=O)N(CC3CC3)C(C(=O)Nc3cccc(C(F)(F)F)n3)=C2)cc1OC` [Example 103]: 110 nM.
Regarding `COc1ccc(C2=NS(=O)(=O)N(CC3CC3)C(C(=O)Nc3cccc(Cl)c3)=C2)cc1OC` [Example 104], the EC50 was 370 nM.
The same measure for `COc1ccc(C2=NS(=O)(=O)N(CC3CC3)C(C(=O)Nc3cccc(C(F)(F)F)c3)=C2)cc1C` [Example 105]: 120 nM; for `O=C(Nc1cccc(C(F)(F)F)n1)C1=CC([C@H]2CC[C@H](C(F)(F)F)CC2)=NS(=O)(=O)N1CC1CC1` [Example 106]: 70 nM.
The same measure for `C=CCN1C(C(=O)Nc2cccc(C(F)(F)F)n2)=CC(c2ccc(OC)c(OC)c2)=NS1(=O)=O` [Example 107]: 55 nM.
The same measure for `COc1ccc(NC(=O)C2=CC(c3ccc(OC)c(OC)c3)=NS(=O)(=O)N2C(C)C)cc1` [Example 108]: 1300 nM; for `COc1ccc(C2=NS(=O)(=O)N(C(C)C)C(C(=O)Nc3cc(Cl)ccn3)=C2)cc1OC` [Example 110]: 640 nM.
As for `CCCCN1C(C(=O)Nc2cccc(C(F)(F)F)c2)=CC(c2ccc(OC)c(OC)c2)=NS1(=O)=O` [Example 111], the EC50 stood at 200 nM.
Turning to `CCCN1C(C(=O)Nc2ccc(OC)cc2)=CC(c2ccc(OC)c(OC)c2)=NS1(=O)=O` [Example 112], the EC50 turned out to be 75 nM.
In the case of `CCCN1C(C(=O)Nc2cccc(C)c2)=CC(c2ccc(OC)c(OC)c2)=NS1(=O)=O` [Example 113], the EC50 is 80 nM.
With `CCCN1C(C(=O)Nc2cccc(Cl)c2)=CC(c2ccc(OC)c(OC)c2)=NS1(=O)=O` [Example 114], the EC50 worked out at 380 nM.
Turning to `CCCN1C(C(=O)Nc2cccc(C(F)(F)F)c2)=CC(c2ccc(OC)c(C(F)(F)F)c2)=NS1(=O)=O` [Example 115], the EC50 turned out to be 85 nM.
Take `COc1ccc(NC(=O)C2=CC(c3ccc(OC)c(OC)c3)=NS(=O)(=O)N2CC2CC2)cc1` [Example 116]: the EC50 was found to be 100 nM.
The same measure for `COc1ccc(C2=NS(=O)(=O)N(CC3CC3)C(C(=O)Nc3cccc(C)c3)=C2)cc1OC` [Example 117]: 110 nM; for `COc1ccc(C2=NS(=O)(=O)N(CC(F)(F)F)C(C(=O)Nc3cccc(C(F)(F)F)c3)=C2)cc1OC` [Example 118]: 530 nM.
The same measure for `COc1ccc(C2=NS(=O)(=O)N(CC(F)(F)F)C(C(=O)Nc3cccc(C)c3)=C2)cc1OC` [Example 119]: 380 nM; for `C=CCN1C(C(=O)Nc2ccc(OC)cc2)=CC(c2ccc(OC)c(OC)c2)=NS1(=O)=O` [Example 120]: 120 nM.
The same measure for `C=CCN1C(C(=O)Nc2cccc(C(F)(F)F)c2)=CC(c2ccc(OC)c(OC)c2)=NS1(=O)=O` [Example 121]: 220 nM; for `COc1ccc(C2=NS(=O)(=O)N(C(C)C)C(C(=O)Nc3cccc(F)n3)=C2)cc1OC` [Example 123]: 55 nM.
Consider `CC(C)N1C(C(=O)Nc2cncc(C(F)(F)F)n2)=CC([C@H]2CC[C@H](C(F)(F)F)CC2)=NS1(=O)=O` [Example 124], for which the EC50 is 110 nM.
The same measure for `CC(C)N1C(C(=O)Nc2cccc(F)n2)=CC([C@H]2CC[C@H](C(F)(F)F)CC2)=NS1(=O)=O` [Example 125]: 45 nM; for `CC(C)N1C(C(=O)Nc2cccc(C(F)(F)F)n2)=CC(C2CCC(F)(F)CC2)=NS1(=O)=O` [Example 126]: 220 nM.
In the case of `CC(C)N1C(C(=O)Nc2cccc(F)n2)=CC(C2CCC(F)(F)CC2)=NS1(=O)=O` [Example 127], the EC50 came out at 580 nM.
Consider `COCCN1C(C(=O)Nc2cccc(C(F)(F)F)n2)=CC([C@H]2CC[C@H](C(F)(F)F)CC2)=NS1(=O)=O` [Example 128], for which the EC50 was 310 nM.
The same measure for `COCCN1C(C(=O)Nc2cccc(C(F)(F)F)n2)=CC(C2CCC(F)(F)CC2)=NS1(=O)=O` [Example 130]: 960 nM; for `COCCN1C(C(=O)Nc2cccc(F)n2)=CC(C2CCC(F)(F)CC2)=NS1(=O)=O` [Example 131]: 1800 nM.
The same measure for `O=C(Nc1cccc(F)n1)C1=CC([C@H]2CC[C@H](C(F)(F)F)CC2)=NS(=O)(=O)N1CC1CC1` [Example 132]: 35 nM.
